Measurements as given in the supplement of paper PMC10307832.

Tests used:
Test in all cases: relative viability (nuclei count vs DMSO), 5 days (fraction); higher = more cells survive
BMX-IN-1 + Pictilisib = compound: C=CC(=O)Nc1cc(-n2c(=O)ccc3cnc4ccc(-c5ccc(NS(C)(=O)=O)cc5)cc4c32)ccc1C [BMX-IN-1] + CS(=O)(=O)N1CCN(Cc2cc3nc(-c4cccc5[nH]ncc45)nc(N4CCOCC4)c3s2)CC1 [Pictilisib] (partner 1 µM)
How it was run: (§1)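 Nuclei were stained with Hoechst during a one-step fixation (final 0.05% Triton X-100, 1% formaldehyde, 1 ug/ml Hoechst) carried out 5 days after dosing, then counted on 4× images. The cells, lung cancer lines in 1536-well plates, had been dosed by pin tool the day after seeding with one drug alone or a fixed anchor-drug dose plus five library-drug doses (not always all listed) in √10 steps. Relative viability is the nuclei count in treated wells divided by that in vehicle wells, and each value is the median of duplicate plates.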

Ibrutinib + Linsitinib = compound: C=CC(=O)N1CCC[C@@H](n2nc(-c3ccc(Oc4ccccc4)cc3)c3c(N)ncnc32)C1 [Ibrutinib] + C[C@]1(O)C[C@@H](c2nc(-c3ccc4ccc(-c5ccccc5)nc4c3)c3c(N)nccn32)C1 [Linsitinib] (partner 1 µM)
How it was run: as §1

PAC-1 + OSI-027 = compound: C=CCc1cccc(/C=N/NC(=O)CN2CCN(Cc3ccccc3)CC2)c1O [PAC-1] + COc1cccc2cc(-c3nc([C@H]4CC[C@H](C(=O)O)CC4)n4ncnc(N)c34)[nH]c12 [OSI-027] (partner 0.5 µM)
How it was run: as §1

BMX-IN-1 + Pemetrexed = compound: C=CC(=O)Nc1cc(-n2c(=O)ccc3cnc4ccc(-c5ccc(NS(C)(=O)=O)cc5)cc4c32)ccc1C [BMX-IN-1] + Nc1nc2[nH]cc(CCc3ccc(C(=O)N[C@@H](CCC(=O)O)C(=O)O)cc3)c2c(=O)[nH]1 [Pemetrexed] (partner 0.2 µM)
How it was run: as §1

Row | Cell Line | relative viability (BMX-IN-1 + Pictilisib; first compound 0.02 µM) | relative viability (BMX-IN-1 + Pictilisib; first compound 0.2 µM) | relative viability (BMX-IN-1 + Pictilisib; first compound 0.6325 µM) | relative viability (BMX-IN-1 + Pictilisib; first compound 2 µM) | relative viability (Ibrutinib + Linsitinib; first compound 0.005 µM) | relative viability (Ibrutinib + Linsitinib; first compound 0.01581 µM) | relative viability (Ibrutinib + Linsitinib; first compound 0.05 µM) | relative viability (Ibrutinib + Linsitinib; first compound 0.1581 µM) | relative viability (Ibrutinib + Linsitinib; first compound 0.5 µM) | relative viability (PAC-1 + OSI-027; first compound 0.02 µM) | relative viability (PAC-1 + OSI-027; first compound 0.06325 µM) | relative viability (PAC-1 + OSI-027; first compound 0.2 µM) | relative viability (PAC-1 + OSI-027; first compound 2 µM) | relative viability (BMX-IN-1 + Pemetrexed; first compound 0.02 µM) | relative viability (BMX-IN-1 + Pemetrexed; first compound 0.2 µM) | relative viability (BMX-IN-1 + Pemetrexed; first compound 0.6325 µM) | relative viability (BMX-IN-1 + Pemetrexed; first compound 2 µM)
1 | NCI-H1944 | 0.386 | 0.352 | 0.387 | 0.336 | 1.05 | 1.01 | 1.23 | 1.05 | 0.568 | 0.362 | 0.439 | 0.456 | 0.423 | 0.632 | 0.746 | 0.603 | 0.592
2 | NCI-H1975 | 0.285 | 0.291 | 0.363 | 0.287 | 0.916 | 0.834 | 0.844 | 0.985 | 0.503 | 0.826 | 0.62 | 0.704 | 0.842 | 0.321 | 0.312 | 0.29 | 0.279
3 | NCI-H1993 | 0.836 | 0.95 | – | 0.821 | 0.738 | 0.698 | 0.694 | – | 0.647 | 0.485 | 0.576 | 0.634 | 0.545 | 0.65 | 0.669 | 0.645 | 0.622
4 | NCI-H2009 | 1.19 | 0.946 | 0.905 | 0.765 | 1.21 | 1.13 | 1.14 | 1.23 | 1.18 | 0.645 | 0.614 | 0.582 | 0.669 | 1.08 | 1.06 | 1.09 | 1.07
5 | NCI-H2023 | 0.27 | 0.241 | 0.265 | 0.334 | 0.601 | 0.494 | 0.53 | 0.596 | 0.456 | 0.429 | 0.404 | 0.333 | 0.357 | 0.285 | 0.304 | 0.226 | 0.26
6 | NCI-H2085 | 0.433 | 0.389 | 0.485 | 0.443 | 1.04 | 0.884 | 0.865 | 0.895 | 0.775 | 0.755 | 0.713 | 0.66 | 0.754 | 0.968 | 0.823 | 0.923 | 0.909
7 | NCI-H2087 | 0.876 | 0.662 | 0.954 | 1.15 | 1.07 | 1.06 | – | 1.02 | 0.943 | 0.467 | 0.58 | 0.401 | 0.497 | 0.725 | 0.715 | 0.669 | 0.625
8 | NCI-H2126 | 0.473 | 0.481 | 0.568 | 0.51 | – | 0.66 | 0.705 | 0.732 | 0.539 | 0.725 | 0.717 | 0.712 | 0.687 | 0.777 | 0.7 | 0.705 | 0.721
9 | NCI-H2228 | 0.578 | 0.471 | 0.443 | 0.432 | 0.62 | 0.689 | 0.71 | 0.936 | 0.454 | 0.543 | 0.513 | 0.512 | 0.564 | 0.408 | 0.331 | 0.396 | 0.325
10 | NCI-H2347 | 0.748 | 0.576 | 0.613 | 0.748 | – | 0.979 | 1.04 | 0.816 | 1.05 | 0.4 | 0.395 | 0.38 | 0.46 | 0.412 | 0.298 | 0.417 | 0.397
11 | NCI-H2405 | 0.505 | 0.444 | 0.484 | 0.393 | 0.849 | 0.801 | 0.929 | – | 0.869 | 0.65 | 0.638 | 0.598 | 0.71 | 1.13 | 1.19 | 1.09 | 0.94
12 | NCI-H3122 | 0.689 | 0.632 | 0.571 | 0.675 | – | 1.03 | 1.03 | 0.992 | 1.07 | 1.25 | 0.972 | 0.919 | 0.925 | 0.203 | 0.206 | 0.19 | 0.19
13 | PC-3 [JPC-3] | 0.812 | 0.839 | 0.756 | 0.788 | 0.917 | 0.93 | 0.956 | 0.955 | 0.619 | 0.834 | 0.698 | 0.773 | 0.821 | 0.933 | 1.28 | 1.44 | 1.04
14 | PC-14 | 0.952 | 0.85 | 0.774 | 0.851 | 1 | 0.949 | 0.976 | 0.902 | 0.462 | 1.07 | 0.727 | 0.779 | 0.911 | 0.121 | 0.134 | 0.145 | 0.134
15 | RERF-LC-KJ | 0.6 | 0.64 | 0.607 | 0.484 | 0.903 | 0.804 | 0.818 | 0.824 | 0.778 | 0.5 | 0.548 | 0.59 | 0.463 | 0.468 | 0.448 | 0.48 | 0.456
16 | SK-LU-1 | 0.579 | 0.567 | 0.675 | 0.481 | 0.776 | 1.02 | 1.21 | 1.21 | 1.04 | 0.338 | 0.363 | 0.287 | 0.326 | 1.13 | 1.27 | 0.962 | 0.95
17 | SW 1573 | 0.5 | 0.512 | 0.466 | 0.478 | 0.732 | 0.761 | 0.925 | 0.814 | 0.809 | 0.642 | 0.613 | 0.606 | 0.791 | 0.901 | 1.02 | 0.931 | 0.666
18 | UMC-11 | 1.07 | 0.922 | 0.892 | 0.912 | 0.903 | 0.987 | 1.17 | 1.14 | 0.938 | 0.546 | 0.459 | 0.461 | 0.472 | 0.92 | 0.792 | 0.754 | 0.754
